ChEMBL document CHEMBL1201862, “PubChem BioAssay data set” (2004)
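The compound was tested at five concentrations on cells cultured in 96-well plates, with a 48-hour exposure period. GI50 = concentration required for 50% inhibition of growth.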 Calls of active or inactive are those of the source. Rule as the data show it: active = GI50 up to about 1.1 µM and inactive = higher.

How the values were obtained:
Test in all cases: NCI anticancer screen, dose series, 48 h
[1] = tested on: HL-60
[2] = tested on: SF-268
[3] = tested on: CAKI-1
[4] = tested on: SK-OV-3
[5] = tested on: NCI/ADR-RES
[6] = tested on: TK-10
[7] = tested on: NCI-H23
[8] = tested on: PC-3
[9] = tested on: HOP-92
[10] = tested on: OVCAR-5
[11] = tested on: SK-MEL-2
[12] = tested on: OVCAR-8
[13] = tested on: SK-MEL-5
[14] = tested on: DU-145
[15] = tested on: MDA-MB-435
[16] = tested on: MDA-MB-231
[17] = tested on: SF-295
[18] = tested on: NCI-H522
[19] = tested on: NCI-H460
[20] = tested on: M14
[21] = tested on: HCC 2998
[22] = tested on: K562
[23] = tested on: HCT-15
[24] = tested on: SNB-19
[25] = tested on: CCRF-CEM
[26] = tested on: RXF 393
[27] = tested on: HT-29
[28] = tested on: SF-539
[29] = tested on: Hs-578T
[30] = tested on: UO-31
[31] = tested on: ACHN
[32] = tested on: KM12
[33] = tested on: OVCAR-3
[34] = tested on: U-251
[35] = tested on: LOX IMVI
[36] = tested on: MOLT-4
[37] = tested on: IGROV-1
[38] = tested on: SNB-75
[39] = tested on: UACC-62
[40] = tested on: SK-MEL-28
[41] = tested on: SR
[42] = tested on: 786-0
[43] = tested on: HCT-116
[44] = tested on: SN12C
[45] = tested on: UACC-257
[46] = tested on: MDA-N
[47] = tested on: OVCAR-4
[48] = tested on: RPMI-8226
[49] = tested on: Malme-3M
[50] = tested on: MCF7
[51] = tested on: T47D
[52] = tested on: A498
[53] = tested on: COLO 205
[54] = tested on: EKVX
[55] = tested on: BT-549
[56] = tested on: HOP-62
[57] = tested on: NCI-H226
[58] = tested on: A549
[59] = tested on: SW-620

For `CCOC(=O)C1=C(C(=O)OCC)SC2(S1)C(C(=O)OCC)=C(C(=O)OCC)Sc1c2ssc1=O`, the GI50 [1] was 0.279 µM (active), the GI50 [2] was 1.97 µM (inactive) and the GI50 [3] was 2.42 µM (inactive). For the same compound, the GI50 [4] was 6.12 µM (inactive), the GI50 [5] was 2.71 µM (inactive) and the GI50 [6] was 1.73 µM (inactive). For the same compound, the GI50 [7] was 1.93 µM (inactive), the GI50 [8] was 1.44 µM (inactive) and the GI50 [9] was 1.35 µM (inactive). For the same compound, the GI50 [10] was 4.7 µM (inactive), the GI50 [11] was 2.17 µM (inactive) and the GI50 [12] was 1.6 µM (inactive). The GI50 [13] was 2.03 µM (inactive), the GI50 [14] was 0.857 µM (active) and the GI50 [15] was 1.99 µM (inactive). The GI50 [16] was 2 µM (inactive), the GI50 [17] was 15 µM (inactive) and the GI50 [18] was 1.36 µM (inactive). For the same compound, the GI50 [19] was 8.51 µM (inactive), the GI50 [20] was 2.04 µM (inactive) and the GI50 [21] was 2.42 µM (inactive). For the same compound, the GI50 [22] was 0.474 µM (active), the GI50 [23] was 0.912 µM and the GI50 [24] was 3.84 µM (inactive). The GI50 [25] was 0.16 µM (active), the GI50 [26] was 1.03 µM (active) and the GI50 [27] was 1.76 µM (inactive). For the same compound, the GI50 [28] was 0.845 µM (active), the GI50 [29] was 1.97 µM (inactive) and the GI50 [30] was 1.54 µM (inactive). The GI50 [31] was 1.72 µM (inactive), the GI50 [32] was 4.52 µM (inactive) and the GI50 [33] was 1.69 µM (inactive). The GI50 [34] was 1.93 µM (inactive), the GI50 [35] was 0.239 µM (active) and the GI50 [36] was 0.226 µM (active). For the same compound, the GI50 [37] was 0.764 µM (active), the GI50 [38] was 1.85 µM (inactive) and the GI50 [39] was 1.94 µM (inactive). For the same compound, the GI50 [40] was 1.84 µM (inactive), the GI50 [41] was < 0.01 µM (active) and the GI50 [42] was 0.811 µM (active). For the same compound, the GI50 [43] was 0.815 µM (active), the GI50 [44] was 0.918 µM (active) and the GI50 [45] was 1.6 µM (inactive). For the same compound, the GI50 [46] was 1.97 µM (inactive), the GI50 [47] was 1.27 µM (inactive) and the GI50 [48] was 1.59 µM (inactive). For the same compound, the GI50 [49] was 1.98 µM (inactive), the GI50 [50] was 1.74 µM (inactive) and the GI50 [51] was 1.76 µM (inactive). The GI50 [52] was 6.15 µM (inactive), the GI50 [53] was 1.84 µM (inactive) and the GI50 [54] was 2.34 µM (inactive). For the same compound, the GI50 [55] was 1.94 µM (inactive), the GI50 [56] was 1.67 µM (inactive) and the GI50 [57] was 22.1 µM (inactive). For the same compound, the GI50 [58] was 2.26 µM (inactive) and the GI50 [59] was 0.361 µM (active).
